Like-named read-outs stand apart in the source and are kept apart here.

This assay concerns the target T1, Urease Purified from Proteus mirabilis (Pr-91) (Proteus mirabilis, UniProt P17086).
T1 construct: host or cells: Proteus mirabilis (Pr-91)
The experiment in a line: Inhibition of urease purified from Proteus mirabilis (Pr-91). The assay is classed as biochemical. The source says:
The Inhibition of Urease Purified from Proteus mirabilis (Pr-91)
Concentration of Compounds of Formula [drawing 5] for 50% Inhibition of Urease.

T1 sequence (P17086 whole entry): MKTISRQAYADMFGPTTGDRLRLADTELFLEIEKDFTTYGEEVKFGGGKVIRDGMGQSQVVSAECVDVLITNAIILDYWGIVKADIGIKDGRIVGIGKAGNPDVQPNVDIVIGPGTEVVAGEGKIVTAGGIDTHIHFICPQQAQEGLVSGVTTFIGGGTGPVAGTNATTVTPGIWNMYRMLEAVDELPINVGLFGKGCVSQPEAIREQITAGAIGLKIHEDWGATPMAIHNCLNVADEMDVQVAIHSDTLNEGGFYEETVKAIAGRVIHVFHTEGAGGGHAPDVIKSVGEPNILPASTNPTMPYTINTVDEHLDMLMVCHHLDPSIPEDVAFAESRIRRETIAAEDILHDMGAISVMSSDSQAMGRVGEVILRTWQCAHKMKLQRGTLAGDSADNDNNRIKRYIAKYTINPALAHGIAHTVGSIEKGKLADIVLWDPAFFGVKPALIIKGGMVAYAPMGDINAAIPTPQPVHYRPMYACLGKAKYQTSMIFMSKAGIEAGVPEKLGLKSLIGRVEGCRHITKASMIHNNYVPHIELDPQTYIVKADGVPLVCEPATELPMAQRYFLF
T1 sequence (P17088 whole entry, further chain): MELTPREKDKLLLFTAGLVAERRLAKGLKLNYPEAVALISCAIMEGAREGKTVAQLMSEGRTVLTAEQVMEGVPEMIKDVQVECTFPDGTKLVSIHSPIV
T1 sequence (P17087 whole entry, further chain): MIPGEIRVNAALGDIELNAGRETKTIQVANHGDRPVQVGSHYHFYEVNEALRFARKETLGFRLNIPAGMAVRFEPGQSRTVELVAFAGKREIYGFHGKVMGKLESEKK

`Nc1ccc(NP(N)(N)=O)cc1` [4-Aminophenyl, N-(4-Aminophenyl)phosphorotriamide] came in with an IC50 of 16 µM. The same measure, in the same setting: with `NP(N)(=O)Nc1cccc(C(F)(F)F)c1` [3-Trifluoromethylphenyl, N-[3-(Trifluoromethyl)phenyl]phosphorotriamide] the figure was 40 µM; with `NP(N)(=O)Nc1ccccc1` [Phenyl], 13 µM; with `NP(N)(=O)Nc1ccc([N+](=O)[O-])cc1` [4-Nitrophenyl, N-(4-Nitrophenyl)phosphorotriamide], 0.35 µM.

Turning to `N#Cc1ccc(NP(N)(N)=O)cc1` [4-Cyanophenyl, N-(4-Cyanophenyl)phosphorotriamide], the IC50 came out at 50 µM. Turning to `NP(N)(N)=O` [H], the IC50 (urease purified from Proteus mirabilis (Pr-91), read-out: Concentration of compound for 50% inhibition of urease) was 0.12 µM.

The values above are taken from patent US4242325A, “Phosphorotriamides as urease inhibitors” (priority 1979, dated 1980).
